In this series the test system is CCRIS mutagenicity, Ames/micronucleus/aberration tests. Kind of series: CCRIS mutagenicity studies.
Where [1] appears, read: Test System: AMES SALMONELLA TYPHIMURIUM, Strain/Indicator: TA98, Metabolic Activation: NONE.
Where [2] appears, read: Test System: AMES SALMONELLA TYPHIMURIUM, Strain/Indicator: TA100, Metabolic Activation: NONE.
Where [3] appears, read: Test System: AMES SALMONELLA TYPHIMURIUM, Strain/Indicator: TA1535, Metabolic Activation: NONE.
Where [4] appears, read: Test System: AMES SALMONELLA TYPHIMURIUM, Strain/Indicator: TA98, Metabolic Activation: RAT, LIVER, S-9, AROCLOR 1254.
Where [5] appears, read: Test System: AMES SALMONELLA TYPHIMURIUM, Strain/Indicator: TA100, Metabolic Activation: RAT, LIVER, S-9, AROCLOR 1254.
Where [6] appears, read: Test System: AMES SALMONELLA TYPHIMURIUM, Strain/Indicator: TA1535, Metabolic Activation: RAT, LIVER, S-9, AROCLOR 1254.
The mark [7] stands for this setting: Test System: AMES SALMONELLA TYPHIMURIUM, Strain/Indicator: TA1537, Metabolic Activation: NONE.
[8] abbreviates: Test System: AMES SALMONELLA TYPHIMURIUM, Strain/Indicator: TA1537, Metabolic Activation: RAT, LIVER, S-9, AROCLOR 1254.
Where [9] appears, read: Test System: AMES SALMONELLA TYPHIMURIUM, Strain/Indicator: TA98, Metabolic Activation: NONE, Method: PREINCUBATION
The mark [10] stands for this setting: Test System: AMES SALMONELLA TYPHIMURIUM, Strain/Indicator: TA100, Metabolic Activation: NONE, Method: PREINCUBATION

Calls of active or inactive are those of the source. The rule behind the calls is not given here.

Regarding `NC(Cn1ccnc1)C(=O)O` (configuration not stated), the mutagenic call by setting is: under setting [1], “inactive; negative”; under setting [2], “inactive; negative”; (Test System: AMES SALMONELLA TYPHIMURIUM, Strain/Indicator: TA102, Metabolic Activation: NONE) “inactive; negative”; under setting [3], “inactive; negative”; (Test System: AMES SALMONELLA TYPHIMURIUM, Strain/Indicator: TP2428, Metabolic Activation: NONE) “inactive; negative”; (Test System: E. COLI, Strain/Indicator: WP2 UVRA (PKM101), Metabolic Activation: NONE) “active; positive”.
As for `CC(C)NCC(O)c1ccc2ccccc2c1` (configuration not stated), the mutagenic call is, setting by setting: under setting [1], “inactive; negative”; under setting [4], “inactive; negative”; under setting [2], “inactive; negative”; under setting [5], “inactive; negative”; under setting [3], “inactive; negative”; under setting [6], “inactive; negative”. For the same molecule, the mutagenic call is, setting by setting: under setting [7], “inactive; negative”; under setting [8], “inactive; negative”.
Take `CC(C)(C)OO`: the mutagenic call by setting is: (End Point: In vitro micronucleus, Test System: Chinese hamster V79 cells, Metabolic Activation: None) “active; positive (hibiscus tiliaceus l methanolic extract at doses above 0.010 mg/ml had”; (Test System: AMES SALMONELLA TYPHIMURIUM, Strain/Indicator: TA98, Metabolic Activation: HAMSTER, LIVER, S-9, AROCLOR 1254, Method: PREINCUBATION) “inactive; negative”; under setting [9], “inactive; negative”; (Test System: AMES SALMONELLA TYPHIMURIUM, Strain/Indicator: TA98, Metabolic Activation: RAT, LIVER, S-9, AROCLOR 1254, Method: PREINCUBATION) “inactive; negative”; (Test System: AMES SALMONELLA TYPHIMURIUM, Strain/Indicator: TA100, Metabolic Activation: HAMSTER, LIVER, S-9, AROCLOR 1254, Method: PREINCUBATION) “inactive; negative”; under setting [10], “inactive; negative”. In addition, the mutagenic call is, setting by setting: (Test System: AMES SALMONELLA TYPHIMURIUM, Strain/Indicator: TA100, Metabolic Activation: RAT, LIVER, S-9, AROCLOR 1254, Method: PREINCUBATION) “inactive; negative”; (Test System: AMES SALMONELLA TYPHIMURIUM, Strain/Indicator: TA102, Metabolic Activation: NONE, Method: STANDARD PLATE) “active; positive”; (Test System: AMES SALMONELLA TYPHIMURIUM, Strain/Indicator: TA1535, Metabolic Activation: HAMSTER, LIVER, S-9, AROCLOR 1254, Method: PREINCUBATION) “inactive; negative”; (Test System: AMES SALMONELLA TYPHIMURIUM, Strain/Indicator: TA1535, Metabolic Activation: NONE, Method: PREINCUBATION) “inactive; negative”; (Test System: AMES SALMONELLA TYPHIMURIUM, Strain/Indicator: TA1535, Metabolic Activation: RAT, LIVER, S-9, AROCLOR 1254, Method: PREINCUBATION) “inactive; negative”; (Test System: AMES SALMONELLA TYPHIMURIUM, Strain/Indicator: TA1537, Metabolic Activation: HAMSTER, LIVER, S-9, AROCLOR 1254, Method: PREINCUBATION) “active; positive”. Further, the mutagenic call reads like this: (Test System: AMES SALMONELLA TYPHIMURIUM, Strain/Indicator: TA1537, Metabolic Activation: NONE, Method: PREINCUBATION) “active; positive”; (Test System: AMES SALMONELLA TYPHIMURIUM, Strain/Indicator: TA1537, Metabolic Activation: RAT, LIVER, S-9, AROCLOR 1254, Method: PREINCUBATION) “active; positive”; (Test System: AMES SALMONELLA TYPHIMURIUM, Strain/Indicator: TA2638, Metabolic Activation: NONE, Method: STANDARD PLATE) “active; positive”; (Test System: AMES SALMONELLA TYPHIMURIUM, Strain/Indicator: TA2638A, Metabolic Activation: NONE, Method: STANDARD PLATE) “active; positive”; (Test System: E. COLI, Strain/Indicator: IC202, Metabolic Activation: NONE, Method: STANDARD PLATE) “active; positive”; (Test System: E. COLI, Strain/Indicator: IC203, Metabolic Activation: NONE, Method: STANDARD PLATE) “active; positive”. Further, the mutagenic call (Test System: E. COLI, Strain/Indicator: IC5059, Metabolic Activation: NONE, Method: STANDARD PLATE) is “active; positive”; the mutagenic call (Test System: E. COLI, Strain/Indicator: IC5064, Metabolic Activation: NONE, Method: STANDARD PLATE) is “active; positive”; the mutagenic call (Test System: E. COLI, Strain/Indicator: IC5184, Metabolic Activation: NONE, Method: STANDARD PLATE) was “active; positive”; the mutagenic call (Test System: E. COLI, Strain/Indicator: IC5185, Metabolic Activation: NONE, Method: STANDARD PLATE) was “active; positive”; the mutagenic call (Test System: E. COLI, Strain/Indicator: WP2 (PKM101), Metabolic Activation: NONE, Method: STANDARD PLATE) was “active; positive”; the mutagenic call (Test System: E. COLI, Strain/Indicator: WP2 UVRA (PKM101), Metabolic Activation: NONE, Method: STANDARD PLATE) is “active; positive”. Besides, the mutagenic call runs as follows: (Test System: E. coli, Strain/Indicator: WP2 IC185 trpE65, Metabolic Activation: None, Method: Plate incorporation (Test material solvent: 1 x M9 buffer)) “active; positive. linalool, myrcene and eycalyptol did not inhibit mutagenesis”; (Test System: E. coli, Strain/Indicator: WP2 IC202 trpE65 oxyR/pKM101, Metabolic Activation: None, Method: Plate incorporation (Test material solvent: 1 x M9 buffer)) “active; positive. linalool, myrcene and eycalyptol inhibited mutagenesis”.
Regarding `CC(=O)Nc1ccc(CC(=O)O)cc1`, the mutagenic call is “inactive; negative” under setting [1]; “inactive; negative” under setting [4]; “inactive; negative” under setting [2]; “inactive; negative” under setting [5]; “inactive; negative” under setting [3]; “inactive; negative” under setting [6]. Also, the mutagenic call under setting [7] was “inactive; negative”; the mutagenic call under setting [8] is “inactive; negative”; the mutagenic call (Test System: AMES SALMONELLA TYPHIMURIUM, Strain/Indicator: TA1538, Metabolic Activation: NONE) was “inactive; negative”; the mutagenic call (Test System: AMES SALMONELLA TYPHIMURIUM, Strain/Indicator: TA1538, Metabolic Activation: RAT, LIVER, S-9, AROCLOR 1254) is “inactive; negative”; the mutagenic call (Test System: E. COLI, Strain/Indicator: WP2, Metabolic Activation: NONE) was “inactive; negative”; the mutagenic call (Test System: E. COLI, Strain/Indicator: WP2, Metabolic Activation: RAT, LIVER, S-9, AROCLOR 1254) was “inactive; negative”. For the same molecule, the mutagenic call runs as follows: (Test System: E. COLI, Strain/Indicator: WP2 UVRA, Metabolic Activation: NONE) “inactive; negative”; (Test System: E. COLI, Strain/Indicator: WP2 UVRA, Metabolic Activation: RAT, LIVER, S-9, AROCLOR 1254) “inactive; negative”.
As for `COC(=O)[C@@H](C)CN=[N+]=[N-]`, the mutagenic call (Test System: AMES SALMONELLA TYPHIMURIUM, Strain/Indicator: TA100, Metabolic Activation: RAT, LIVER, S-9, PCB, Method: PREINCUBATION) is “active; positive”.
With `CC(C)(C)OOC1(C)C=C(C(C)(C)C)C(=O)C(C(C)(C)C)=C1`, the mutagenic call under setting [9] is “inactive; negative”; the mutagenic call (Test System: AMES SALMONELLA TYPHIMURIUM, Strain/Indicator: TA98, Metabolic Activation: RAT, LIVER, S-9, Method: PREINCUBATION) is “inactive; negative”; the mutagenic call under setting [10] is “inactive; negative”; the mutagenic call (Test System: AMES SALMONELLA TYPHIMURIUM, Strain/Indicator: TA100, Metabolic Activation: RAT, LIVER, S-9, Method: PREINCUBATION) is “inactive; negative”.
Regarding `CC(C)NCC(O)COc1cccc2[nH]ccc12` (configuration not stated), the mutagenic call by setting is: under setting [1], “inactive; negative”; under setting [4], “inactive; negative”; under setting [2], “inactive; negative”; under setting [5], “inactive; negative”; under setting [3], “inactive; negative”; under setting [6], “inactive; negative”. The mutagenic call by setting is: under setting [7], “inactive; negative”; under setting [8], “inactive; negative”.

Values taken from PubChem BioAssay AID1259407 (Chemical Carcinogenesis Research Information System (CCRIS), 2018).
